The source of these data is PubChem BioAssay (NCI).

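1) Cells in 96-well plates. 2) Compound, 48 h, 5 concentrations. 3) Linear interpolation between surrounding doses. 4) Unreached endpoint = highest concentration. The concentration for 50% growth inhibition is given as GI50. At the TGI there is no net growth.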

The test system of the first assay is DLD-1 colon. Nature of the assay: NCI tumour cell line growth inhibition, 48 h.
As for `CCOC(=O)NC(=O)c1cn(CCCO)c(=O)[nH]c1=O`, the TGI is > 100 µM.

Consider `CCN1c2ccccc2C(C(SC)S(=O)(=O)c2ccc(C)cc2)c2c1[nH]c(=O)n(C)c2=O` (centres undefined), for which the TGI is > 100 µM.

Take `COc1ccc(S(=O)(=O)NNS(C)(=O)=O)cc1`: the TGI was > 100 µM.

The molecule `Nc1ncnc2c1nnn2C1OC(CO)C(O)C1O` (centres undefined) displayed a TGI of 25.5 µM.

Take `CC(=O)OC1COC(n2ccc3cc(Br)c([N+](=O)[O-])cc32)C(OC(C)=O)C1OC(C)=O` (centres undefined): the TGI was > 100 µM.

Regarding `CSc1nc(NC2OCC(OC(C)=O)C(OC(C)=O)C2OC(C)=O)c(N=CC=Nc2c(NC3OCC(OC(C)=O)C(OC(C)=O)C3OC(C)=O)nc(SC)[nH]c2=O)c(=O)[nH]1` (centres undefined), the TGI was > 100 µM.

`Cn1cnc([N+](=O)[O-])c1Sc1nc2ccccc2[nH]1` displayed a TGI of 22.2 µM.

Consider `COc1cc2c(c(OC)c1OC)-c1ccc(OC)c(=O)cc1C(NC(=O)c1ccc(N=[N+]=[N-])cc1)CC2` (centres undefined), for which the TGI was > 100 µM.

Molecule `CCCCCCCCC/C=C1\CCC(CN2CCOCC2)C1=O` (centres undefined) registered a TGI of 3.9 µM.

In the case of `CCCCCCN(CCCCCC)C(=O)Cc1c2n(c3ccccc13)Cc1ccccc1-2`, the TGI was > 100 µM.

For the molecule `C/C(=N\NC(=S)NC(CCC(=O)O)C(=O)O)c1ccccn1` (centres undefined), the TGI was > 100 µM.

As for `Brc1ccccc1C1SCc2nc3ccccc3n21` (centres undefined), the TGI came to 26.7 µM.

Take `O=C(/C=C\c1ccc(Cl)c(Cl)c1)c1ccc(Cl)cc1Cl`: the GI50 was 12.6 µM and the TGI was found to be 26.8 µM.

In turn, `CCOC(=O)C(=C=C=C(c1ccccc1)c1ccccc1)C(=O)OCC` came in with a TGI of 40.7 µM.

On to `Cn1c2ccccc2c2cc(-c3ccccc3)c3c(c21)C(=O)c1ccccc1C3=O`, for which the TGI worked out at 31 µM.

Regarding `OCc1ccc(-c2ccc(-c3ccc(CO)s3)o2)s1`, the TGI is > 73.4 µM.

`c1ccc(COc2cccc3ccc[n+](Cc4ccccc4)c23)cc1`: the TGI is > 100 µM.

As to `CN(C)c1ccc(/C=C(\NC(=O)c2ccccc2)c2nc3ncncc3[nH]2)cc1`, the TGI is > 100 µM.

As to `CC1=CC(O)(c2ccc(-c3ccccc3Cl)cc2)OC1=O` (centres undefined), the TGI is > 100 µM.

Regarding `CCOC(=O)CC(=O)ON(C)C(C)=O`, the TGI was > 100 µM.

Regarding `CCc1cc(Cc2cc(CC)c(NC(=O)C(=O)Cc3ccccn3)c(CC)c2Cl)c(Cl)c(CC)c1NC(=O)C(=O)Cc1ccccn1`, the TGI is > 100 µM.

Consider `CC(C)OP(=O)(OC(C)C)C(=NCCN=C(NNc1ccc([N+](=O)[O-])cc1)P(=O)(OC(C)C)OC(C)C)NNc1ccc([N+](=O)[O-])cc1`, for which the TGI was > 100 µM.

For `COC(OC)C(C)CC(=O)N(C)C` (centres undefined), the TGI was > 100 µM.

In the case of `O=S1(=O)OCCOS(=O)(=O)C1Br`, the TGI is > 100 µM.

Take `CC(C)=Cc1cc(C(=O)Nc2ccc(Cl)c(Cl)c2)nc(N)n1`: the TGI is > 100 µM.

In the case of `C#CC1(O)CCC2C3CCc4cc(Oc5nc(F)nc(-c6c7ccccc7c7sc8ccccc8n67)n5)ccc4C3CC[C@@]21C` (some centres undefined), the TGI is > 100 µM.

For `CC(=O)/C(=C\c1cccc([N+](=O)[O-])c1)C(=O)Nc1ccccc1C`, the TGI was > 100 µM.

Molecule `Clc1ccc(C(c2ccc(Cl)cc2)c2ccccn2)cc1` showed a TGI of 83.5 µM.

Regarding `C[Si](C)(C)C1(Sc2ccccc2)SCCCS1`, the TGI was > 100 µM.

With `CC(C)(C)OC(=O)N[C@H]1CC2(C=C(Cl)C(=O)C(Cl)=C2)OC1=O`, the TGI was determined as 13.4 µM.

As for `O=c1cc(-c2ccccc2)oc2cc(OCCCOc3ccc4c(=O)cc(-c5ccccc5)oc4c3)ccc12`, the TGI is > 100 µM.

In a further assay the test system is DMS 273 small cell lung. Nature of the assay: NCI tumour cell line growth inhibition, 48 h.
In the case of `CCOC(=O)NC(=O)c1cn(CCCO)c(=O)[nH]c1=O`, the TGI is > 100 µM.

Regarding `CCN1c2ccccc2C(C(SC)S(=O)(=O)c2ccc(C)cc2)c2c1[nH]c(=O)n(C)c2=O` (centres undefined), the TGI is > 100 µM.

Regarding `COc1ccc(S(=O)(=O)NNS(C)(=O)=O)cc1`, the TGI was > 100 µM.

In the case of `Nc1ncnc2c1nnn2C1OC(CO)C(O)C1O` (centres undefined), the TGI is 13.6 µM.

With `CC(=O)OC1COC(n2ccc3cc(Br)c([N+](=O)[O-])cc32)C(OC(C)=O)C1OC(C)=O` (centres undefined), the TGI was > 100 µM.

`CSc1nc(NC2OCC(OC(C)=O)C(OC(C)=O)C2OC(C)=O)c(N=CC=Nc2c(NC3OCC(OC(C)=O)C(OC(C)=O)C3OC(C)=O)nc(SC)[nH]c2=O)c(=O)[nH]1` (centres undefined): the TGI is > 100 µM.

Consider `Cn1cnc([N+](=O)[O-])c1Sc1nc2ccccc2[nH]1`, for which the TGI stood at 3.43 µM.

`CCCCCCCCC/C=C1\CCC(CN2CCOCC2)C1=O` (centres undefined) gave a TGI of 5.08 µM.

Regarding `CCCCCCN(CCCCCC)C(=O)Cc1c2n(c3ccccc13)Cc1ccccc1-2`, the TGI is > 100 µM.

`O=C(/C=C\c1ccc(Cl)c(Cl)c1)c1ccc(Cl)cc1Cl` displayed a TGI of 34.8 µM.

In turn, `CCOC(=O)C(=C=C=C(c1ccccc1)c1ccccc1)C(=O)OCC` showed a TGI of 45.5 µM.

`Cn1c2ccccc2c2cc(-c3ccccc3)c3c(c21)C(=O)c1ccccc1C3=O` had a TGI of 44.9 µM.

As for `OCc1ccc(-c2ccc(-c3ccc(CO)s3)o2)s1`, the TGI was > 49.5 µM.

In turn, `c1ccc(COc2cccc3ccc[n+](Cc4ccccc4)c23)cc1` showed a TGI of 17.7 µM.

For the molecule `CC1=CC(O)(c2ccc(-c3ccccc3Cl)cc2)OC1=O` (centres undefined), the TGI was > 100 µM.

Take `CCc1cc(Cc2cc(CC)c(NC(=O)C(=O)Cc3ccccn3)c(CC)c2Cl)c(Cl)c(CC)c1NC(=O)C(=O)Cc1ccccn1`: the TGI was > 100 µM.

With `CC(C)OP(=O)(OC(C)C)C(=NCCN=C(NNc1ccc([N+](=O)[O-])cc1)P(=O)(OC(C)C)OC(C)C)NNc1ccc([N+](=O)[O-])cc1`, the TGI was > 100 µM.
